Measured values reported in US8957078B2, “Compounds useful as inhibitors of ATR kinase” (Vertex Pharmaceuticals Incorporated, priority 2013, dated 2015).

How the values were obtained:
[1] = molecular target: T1, ATR kinase (full-length ATR) (Homo sapiens, UniProt Q13535); assay: ATR Inhibition Assay (radioactive-phosphate incorporation); type: biochemical; conditions: Ki(app); 5 nM full-length ATR, 10 μM ATP, 800 μM target peptide, 25° C.
T1 construct: in the presence of 5 nM full-length ATR

[2] = test system: HCT116 colorectal cancer cells; assay: Cisplatin Sensitization Assay (96 h cell viability MTS); type: cell-based; conditions: concentration of compound required to reduce the IC50 of Cisplatin alone by at least 3-fold; HCT116, 96 h MTS
How it was run: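 HCT116 cells treated 96 h at 37 °C with compound and cisplatin together as a full matrix of 2-fold dilutions, each from 10 μM final top concentration. Viability by MTS, absorbance 490 nm. Value reported: compound concentration lowering cisplatin IC50 at least 3-fold.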

T1 sequence (Q13535 whole entry): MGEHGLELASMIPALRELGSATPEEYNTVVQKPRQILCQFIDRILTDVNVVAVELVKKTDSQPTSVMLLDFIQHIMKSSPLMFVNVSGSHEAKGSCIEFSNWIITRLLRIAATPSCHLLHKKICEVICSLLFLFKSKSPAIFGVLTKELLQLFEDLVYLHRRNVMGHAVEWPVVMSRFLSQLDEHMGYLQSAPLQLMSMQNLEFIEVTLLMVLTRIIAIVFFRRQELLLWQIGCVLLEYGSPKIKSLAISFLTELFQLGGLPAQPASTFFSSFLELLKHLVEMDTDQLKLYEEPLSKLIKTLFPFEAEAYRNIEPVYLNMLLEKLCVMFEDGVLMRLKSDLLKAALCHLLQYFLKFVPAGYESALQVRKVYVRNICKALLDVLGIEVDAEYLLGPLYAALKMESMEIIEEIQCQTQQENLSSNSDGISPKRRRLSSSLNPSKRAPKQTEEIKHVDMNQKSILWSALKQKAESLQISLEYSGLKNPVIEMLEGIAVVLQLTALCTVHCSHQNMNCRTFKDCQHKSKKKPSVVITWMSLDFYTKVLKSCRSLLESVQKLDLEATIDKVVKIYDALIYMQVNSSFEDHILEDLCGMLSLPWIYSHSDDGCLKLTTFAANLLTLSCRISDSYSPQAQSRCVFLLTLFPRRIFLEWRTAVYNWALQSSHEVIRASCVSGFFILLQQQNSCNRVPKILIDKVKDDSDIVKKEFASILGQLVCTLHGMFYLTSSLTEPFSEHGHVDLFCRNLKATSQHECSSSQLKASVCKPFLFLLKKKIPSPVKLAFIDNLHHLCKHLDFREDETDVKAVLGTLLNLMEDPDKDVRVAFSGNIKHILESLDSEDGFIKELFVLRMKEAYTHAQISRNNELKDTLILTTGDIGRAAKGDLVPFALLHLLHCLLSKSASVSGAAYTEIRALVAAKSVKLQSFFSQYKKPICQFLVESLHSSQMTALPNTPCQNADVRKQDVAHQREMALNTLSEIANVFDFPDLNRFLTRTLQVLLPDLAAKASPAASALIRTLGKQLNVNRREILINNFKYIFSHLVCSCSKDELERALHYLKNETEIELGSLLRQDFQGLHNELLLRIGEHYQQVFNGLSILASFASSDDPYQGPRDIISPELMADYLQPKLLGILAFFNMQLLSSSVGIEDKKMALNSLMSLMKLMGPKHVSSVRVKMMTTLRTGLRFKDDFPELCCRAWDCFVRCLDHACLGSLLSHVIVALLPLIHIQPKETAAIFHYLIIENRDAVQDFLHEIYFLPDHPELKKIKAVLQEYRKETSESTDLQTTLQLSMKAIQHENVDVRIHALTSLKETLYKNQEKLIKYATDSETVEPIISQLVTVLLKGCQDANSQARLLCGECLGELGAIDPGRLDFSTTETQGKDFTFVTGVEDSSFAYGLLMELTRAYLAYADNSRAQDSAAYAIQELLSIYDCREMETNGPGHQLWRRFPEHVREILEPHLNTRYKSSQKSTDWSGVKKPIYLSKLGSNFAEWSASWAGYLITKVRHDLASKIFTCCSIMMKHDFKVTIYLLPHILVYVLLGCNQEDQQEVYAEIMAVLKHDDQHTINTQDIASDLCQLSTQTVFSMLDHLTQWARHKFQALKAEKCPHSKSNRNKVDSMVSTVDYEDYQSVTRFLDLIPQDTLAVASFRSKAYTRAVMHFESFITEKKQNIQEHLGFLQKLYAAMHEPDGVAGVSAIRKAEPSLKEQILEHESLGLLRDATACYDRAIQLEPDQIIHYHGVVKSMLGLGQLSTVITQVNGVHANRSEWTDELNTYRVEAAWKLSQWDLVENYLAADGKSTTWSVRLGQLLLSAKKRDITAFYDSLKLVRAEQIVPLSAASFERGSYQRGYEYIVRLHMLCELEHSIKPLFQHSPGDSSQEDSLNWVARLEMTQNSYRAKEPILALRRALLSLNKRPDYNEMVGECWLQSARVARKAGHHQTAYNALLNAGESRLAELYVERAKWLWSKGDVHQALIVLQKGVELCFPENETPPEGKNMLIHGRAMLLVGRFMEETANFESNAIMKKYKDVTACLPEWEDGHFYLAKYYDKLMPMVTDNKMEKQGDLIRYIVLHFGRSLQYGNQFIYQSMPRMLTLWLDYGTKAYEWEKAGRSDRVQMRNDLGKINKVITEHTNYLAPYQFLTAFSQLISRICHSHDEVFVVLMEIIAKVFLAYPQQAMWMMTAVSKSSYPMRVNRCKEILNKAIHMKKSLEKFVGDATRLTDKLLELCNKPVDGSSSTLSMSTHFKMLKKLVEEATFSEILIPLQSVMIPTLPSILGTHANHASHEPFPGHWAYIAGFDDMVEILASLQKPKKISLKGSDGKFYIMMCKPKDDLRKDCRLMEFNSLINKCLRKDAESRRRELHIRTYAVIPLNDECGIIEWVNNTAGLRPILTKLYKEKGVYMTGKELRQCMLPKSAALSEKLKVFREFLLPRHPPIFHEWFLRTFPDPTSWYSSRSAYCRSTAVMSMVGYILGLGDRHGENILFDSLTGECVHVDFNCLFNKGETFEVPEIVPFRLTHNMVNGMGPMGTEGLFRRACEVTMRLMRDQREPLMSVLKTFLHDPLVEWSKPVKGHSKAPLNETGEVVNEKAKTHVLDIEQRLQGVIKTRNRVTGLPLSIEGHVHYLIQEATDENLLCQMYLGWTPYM

Row | Compound | Ki [1] [µM] | Cisplatin Sensitization Assay [2]
1 | Cc1nsc(NC(=O)c2c(N)nn3cc(F)cnc23)c1C1=CCN(C)CC1 [I-E-5, 2-amino-6-fluoro-N-(3-methyl-4-(1-methyl-1,2,3,6-tetrahydropyridin-4-yl)isothiazol-5-yl)pyrazolo[1,5-a]pyrimidine-3-carboxamide] | 0.01 to 1 | +++ (Compounds with a Cisplatin sensitization value of <0.02 μM are marked with “+++.”)
2 | CC(=O)N1CC=C(c2c(C)nsc2NC(=O)c2c(N)nn3cc(F)cnc23)CC1 [I-E-9, N-(4-(1-acetyl-1,2,3,6-tetrahydropyridin-4-yl)-3-methylisothiazol-5-yl)-2-amino-6-fluoropyrazolo[1,5-a]pyrimidine-3-carboxamide] | 0.01 to 1 | +++ (Compounds with a Cisplatin sensitization value of <0.02 μM are marked with “+++.”)
3 | Cc1nsc(NC(=O)c2c(N)nn3cc(F)cnc23)c1-c1cncnc1 [I-E-11, 2-amino-6-fluoro-N-(3-methyl-4-(pyrimidin-5-yl)isothiazol-5-yl)pyrazolo[1,5-a]pyrimidine-3-carboxamide] | 0.01 to 1 | ++ (Compounds with a Cisplatin sensitization value >0.02 μM but <0.2 μM are marked with “++.”)
4 | Cc1nsc(NC(=O)c2c(N)nn3cc(F)cnc23)c1-c1cnn(C)c1 [I-E-12, 2-amino-6-fluoro-N-(3-methyl-4-(1-methyl-1H-pyrazol-4-yl)isothiazol-5-yl)pyrazolo[1,5-a]pyrimidine-3-carboxamide] | 0.01 to 1 | ++ (Compounds with a Cisplatin sensitization value >0.02 μM but <0.2 μM are marked with “++.”)
5 | Cc1cc(-c2c(C)nsc2NC(=O)c2c(N)nn3cc(F)cnc23)ccn1 [I-E-13, 2-amino-6-fluoro-N-(3-methyl-4-(2-methylpyridin-4-yl)isothiazol-5-yl)pyrazolo[1,5-a]pyrimidine-3-carboxamide] | 0.01 to 1 | +++ (Compounds with a Cisplatin sensitization value of <0.02 μM are marked with “+++.”)
6 | Cc1nsc(NC(=O)c2c(N)nn3cc(F)cnc23)c1-c1ccncc1 [I-E-14, 2-amino-6-fluoro-N-(3-methyl-4-(pyridin-4-yl)isothiazol-5-yl)pyrazolo[1,5-a]pyrimidine-3-carboxamide] | 0.01 to 1 | +++ (Compounds with a Cisplatin sensitization value of <0.02 μM are marked with “+++.”)
7 | Cc1nsc(NC(=O)c2c(N)nn3cc(F)cnc23)c1CN1CCOCC1 [I-E-15, 2-amino-6-fluoro-N-(3-methyl-4-(morpholinomethyl)isothiazol-5-yl)pyrazolo[1,5-a]pyrimidine-3-carboxamide] | 0.01 to 1 | +++ (Compounds with a Cisplatin sensitization value of <0.02 μM are marked with “+++.”)
8 | Cc1cc(-c2c(C)nsc2NC(=O)c2c(N)nn3cc(F)cnc23)n(C)n1 [I-E-16, 2-amino-N-(4-(1,3-dimethyl-1H-pyrazol-5-yl)-3-methylisothiazol-5-yl)-6-fluoropyrazolo[1,5-a]pyrimidine-3-carboxamide] | 0.01 to 1 | +++ (Compounds with a Cisplatin sensitization value of <0.02 μM are marked with “+++.”)
9 | Cc1nn(C)cc1-c1c(C)nsc1NC(=O)c1c(N)nn2cc(F)cnc12 [I-E-18, 2-amino-N-(4-(1,3-dimethyl-1H-pyrazol-4-yl)-3-methylisothiazol-5-yl)-6-fluoropyrazolo[1,5-a]pyrimidine-3-carboxamide] | 0.01 to 1 | +++ (Compounds with a Cisplatin sensitization value of <0.02 μM are marked with “+++.”)
10 | COCc1c(C)nsc1NC(=O)c1c(N)nn2cc(F)cnc12 [I-E-20, 2-amino-6-fluoro-N-(4-(methoxymethyl)-3-methylisothiazol-5-yl)pyrazolo[1,5-a]pyrimidine-3-carboxamide] | 0.01 to 1 | +++ (Compounds with a Cisplatin sensitization value of <0.02 μM are marked with “+++.”)
11 | Cc1nsc(NC(=O)c2c(N)nn3cc(F)cnc23)c1N1CCCC1 [I-E-21, 2-amino-6-fluoro-N-(3-methyl-4-(pyrrolidin-1-yl)isothiazol-5-yl)pyrazolo[1,5-a]pyrimidine-3-carboxamide] | 0.01 to 1 | ++ (Compounds with a Cisplatin sensitization value >0.02 μM but <0.2 μM are marked with “++.”)

The next lines start with results.

Row | Ki [1] [µM] | Compound | Cisplatin Sensitization Assay [2]
12 | 0.01 to 1 | Nc1nn2cc(F)cnc2c1C(=O)Nc1cncn1-c1cccnc1 [I-D-5, 2-amino-6-fluoro-N-(1-(pyridin-3-yl)-1H-imidazol-5-yl)pyrazolo[1,5-a]pyrimidine-3-carboxamide] | ++ (Compounds with a Cisplatin sensitization value >0.02 μM but <0.2 μM are marked with “++.”)
13 | 0.01 to 1 | Cc1ncc(NC(=O)c2c(N)nn3cc(F)cnc23)n1-c1ccccc1 [I-D-6, 2-amino-6-fluoro-N-(2-methyl-1-phenyl-1H-imidazol-5-yl)pyrazolo[1,5-a]pyrimidine-3-carboxamide] | +++ (Compounds with a Cisplatin sensitization value of <0.02 μM are marked with “+++.”)
14 | < 0.01 | Cc1ncccc1-c1c(C)nsc1NC(=O)c1c(N)nn2cc(F)cnc12 [I-E-1, 2-amino-6-fluoro-N-(3-methyl-4-(2-methylpyridin-3-yl)isothiazol-5-yl)pyrazolo[1,5-a]pyrimidine-3-carboxamide] | +++ (Compounds with a Cisplatin sensitization value of <0.02 μM are marked with “+++.”)
15 | 0.01 to 1 | Cc1nsc(NC(=O)c2c(N)nn3cc(F)cnc23)c1C1CC1 [I-E-2, 2-amino-N-(4-cyclopropyl-3-methylisothiazol-5-yl)-6-fluoropyrazolo[1,5-a]pyrimidine-3-carboxamide] | +++ (Compounds with a Cisplatin sensitization value of <0.02 μM are marked with “+++.”)
16 | 0.01 to 1 | Cc1nsc(NC(=O)c2c(N)nn3cc(F)cnc23)c1-c1cccnc1 [I-E-3, 2-amino-6-fluoro-N-(3-methyl-4-(pyridin-3-yl)isothiazol-5-yl)pyrazolo[1,5-a]pyrimidine-3-carboxamide] | +++ (Compounds with a Cisplatin sensitization value of <0.02 μM are marked with “+++.”)
17 | < 0.01 | Cc1nsc(NC(=O)c2c(N)nn3cc(F)cnc23)c1C1=CCOCC1 [I-E-4, 2-amino-N-(4-(3,6-dihydro-2H-pyran-4-yl)-3-methylisothiazol-5-yl)-6-fluoropyrazolo[1,5-a]pyrimidine-3-carboxamide] | +++ (Compounds with a Cisplatin sensitization value of <0.02 μM are marked with “+++.”)
18 | 0.01 to 1 | Cc1nsc(NC(=O)c2c(N)nn3cc(F)cnc23)c1-c1cncn1C [I-E-6, 2-amino-6-fluoro-N-(3-methyl-4-(1-methyl-1H-imidazol-5-yl)isothiazol-5-yl)pyrazolo[1,5-a]pyrimidine-3-carboxamide] | +++ (Compounds with a Cisplatin sensitization value of <0.02 μM are marked with “+++.”)
19 | < 0.01 | Cc1nsc(NC(=O)c2c(N)nn3cc(F)cnc23)c1-c1ccccc1 [I-E-7, 2-amino-6-fluoro-N-(3-methyl-4-phenylisothiazol-5-yl)pyrazolo[1,5-a]pyrimidine-3-carboxamide] | +++ (Compounds with a Cisplatin sensitization value of <0.02 μM are marked with “+++.”)
20 | 0.01 to 1 | Cc1nsc(NC(=O)c2c(N)nn3cc(F)cnc23)c1-c1ccnn1C [I-E-8] | +++ (Compounds with a Cisplatin sensitization value of <0.02 μM are marked with “+++.”)
21 | < 0.01 | Cc1nsc(NC(=O)c2c(N)nn3cc(F)cnc23)c1-n1cccn1 [I-E-10, 2-amino-6-fluoro-N-(3-methyl-4-(1H-pyrazol-1-yl)isothiazol-5-yl)pyrazolo[1,5-a]pyrimidine-3-carboxamide] | +++ (Compounds with a Cisplatin sensitization value of <0.02 μM are marked with “+++.”)
22 | < 0.01 | Cc1nsc(NC(=O)c2c(N)nn3cc(F)cnc23)c1CN1CCCC1 [I-E-17, 2-amino-6-fluoro-N-(3-methyl-4-(pyrrolidin-1-ylmethyl)isothiazol-5-yl)pyrazolo[1,5-a]pyrimidine-3-carboxamide] | +++ (Compounds with a Cisplatin sensitization value of <0.02 μM are marked with “+++.”)
23 | < 0.01 | Cc1nsc(NC(=O)c2c(N)nn3cc(F)cnc23)c1CN1CCN(C)CC1 [I-E-19, 2-amino-6-fluoro-N-(3-methyl-4-((4-methylpiperazin-1-yl)methyl)isothiazol-5-yl)pyrazolo[1,5-a]pyrimidine-3-carboxamide] | +++ (Compounds with a Cisplatin sensitization value of <0.02 μM are marked with “+++.”)
